Test [1] deals with porcine aortic endothelial (PAE) cells. Nature of the test: In vitro tube formation assay. The test is classed as cell-based. Here is the method: Porcine aortic endothelial (PAE) cells were stably transfected with Green Fluorescent Protein (GFP) and seeded at a concentration of 18,000 cells per well of a 96-well culture plate. The wells were coated with […] basement membrane matrix (Invitrogen, CA). Cells were resuspended in medium at a concentration of 2.25×10^5 to 2.5×10^5 cells/ml. An […] (18,000-20,000) cells were added per well. Positive control cells were cultured with medium supplemented with 1.0% fetal bovine serum (FBS). Negative control cells were cultured with serum-free medium. […] After three or more hours of incubation, cells were assessed for tube formation and were photographed. Assays were performed in triplicate.

For test [2], the target named is T1, APJ receptor (Homo sapiens, UniProt P35414).
T1 sequence (P35414 1-380): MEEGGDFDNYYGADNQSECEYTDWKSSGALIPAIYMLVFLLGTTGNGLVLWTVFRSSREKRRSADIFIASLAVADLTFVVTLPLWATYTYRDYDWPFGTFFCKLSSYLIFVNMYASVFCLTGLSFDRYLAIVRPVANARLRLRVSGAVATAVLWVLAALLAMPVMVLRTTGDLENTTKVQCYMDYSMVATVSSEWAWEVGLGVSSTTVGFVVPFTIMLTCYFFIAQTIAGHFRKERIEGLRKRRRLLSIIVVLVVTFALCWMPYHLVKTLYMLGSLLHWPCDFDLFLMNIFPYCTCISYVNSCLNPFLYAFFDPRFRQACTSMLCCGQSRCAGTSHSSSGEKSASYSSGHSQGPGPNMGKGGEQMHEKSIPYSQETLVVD
The note with it: cited from earlier work.

Test [3] concerns the target T2, apelin G protein receptor (known as APJ) (Homo sapiens, UniProt P35414).
T2 sequence (P35414 1-380): T1 sequence (P35414 1-380)
The note with it: Tatemoto et al. 1998; cited from earlier work.

Test [4] has as its system MDA-MB-345 cells. Nature of the test: Binding of biotinylated salcut-NH2 to cells (fluorescent labeling). Format: cell-based, human.
The test system of test [5] is human breast cancer cell line MDA-MB-435. Kind of test: Proliferation assay, MDA-MB-435. The conditions noted are these: for proliferative response over dose range: dose range of 1 nM to 1 uM; for relative potency in proliferation assays: salcut-NH2 of two manufacturers vs biotinylated salcut, FIG. 14A-14C. Format: cell-based. An excerpt:
An N-terminal biotinylated salcut-NH2 ligand was synthesized (a single biotin moiety was attached to the amino-terminal leucine residue). Validity of the chemical composition of the biotinylated salcut-NH2 was accomplished using amino acid sequence analysis and MADLI-TOF mass spectrometry characterization.

Test [6] concerns human blood vessel endothelial (HMEC-1) cells. Kind of test: Proliferation assay (ATPLITE), HMEC-1. Format: cell-based. The conditions noted are these: FIGS. 3E, 3F, 6. An excerpt: (§1) Proliferation response profiles of apelin, salcut-NH2, salcut-Gly, and/or salcut-OH on a variety of endothelial and tumor cell lines or primary endothelial cells were obtained using the following method. Human blood vessel endothelial cells (HMEC-1), human primary microvascular dermal EC (dB1), human lymphatic endothelial cells (LEC), human mast cells (HMC-1), human breast cancer cells (MCF-7; T47D), human gastric cancer cells (HTB 103), human lung cancer cells (A549), monkey endothelial cells (CRL 1780), and porcine aortic endothelial cells (PAE) were seeded at 25,000 cells per well at 50 μl volume in appropriate media containing 0.5% serum in a 96 well plate. After overnight incubation the peptide was added in serum free media and cells were incubated for 3-5 days. To measure growth proliferation, the adenosine triphosphate ATPLITE™ one-step assay (PerkinElmer), which is based on firefly luciferase and has high sensitivity for quantification of viable cells, was used. Data were expressed as mean plus minus standard deviation. Statistical analyses were performed using Student's t-test, p values less than 0.05 were considered statistically significant.
Endothelial cell proliferation assays were performed as described above with both spontaneously immortalized porcine aortic endothelial (PAE) cells and SV40 immortalized human dermal microvascular endothelial (HMEC-1).
(In ATP-based viability assays light output follows the ATP content of the culture.)

Test [7] relates to rat aortic ring. Nature of the test: Rat aortic ring assay (vessel outcropping). The test is classed as cell-based. On the procedure: On day 0, rats were euthanized and decapitated, and aortas were harvested and transferred to a culture dish containing EGM-2 with growth factors (20 ml media; Clonetics). Fibroadipose tissue and other non-aortic tissue were removed. Using dissecting microscope, the aorta was sectioned into 1 mm-long rings. Aortic rings were then rinsed 6-8× with EGM-2 with growth factors. Aortic rings were each placed in the center of a matrix (GELTREX™; Invitrogen Corp)-coated culture well. Aortic tissue was covered with 250 μl GELTREX™ and each well was incubated with 1 ml EGM-2 with growth factors supplemented for 24 hours at 37° C., 5% CO2.
On day 1, media with growth factors was removed, 250 μl of media (without growth factors) with either 0.1 nM, 1.0 nM, or 10 nM of salcut-NH2 was added to each well and incubated at 37° C., 5% CO2 for 5-7 days.

Test [8] relates to human gastric cancer cell line HTB-103. Kind of test: Proliferation assay (ATPLITE), HTB 103. Format: cell-based. The conditions noted are these: FIG. 5.
Excerpt: as §1

The test system of test [9] is human lung cancer cell line A549. Kind of test: Proliferation assay (ATPLITE), A549. Format: cell-based.
Excerpt: as §1

For test [10], the system named is human mast cell line HMC-1. Kind of test: Proliferation assay (ATPLITE), HMC-1. The note with it: FIG. 5. The test is classed as cell-based.
Excerpt: as §1

In test [11] the test system is human breast cancer cell line MCF-7. Nature of the test: Proliferation assay (ATPLITE), MCF-7. Format: cell-based. The note with it: 1 nM to 1 μM dose range; FIG. 4A.
Excerpt: as §1

For test [12], the system named is A549 human bronchioloalveolar cancer cells. Nature of the test: Nude mouse xenograft study. The note with it: 10 μM. The test is classed as in vivo, nude mice. On the procedure: (§2) Six week old female nude mice were used in this study; ten mice were used per test group. A549 human bronchioloalveolar cancer cells were cultured at the SAIC/Frederick facility. 1×10^7 A549 cells were injected subcutaneously in the hindquarter of each nude mouse. The following treatment regime was started seven days following tumor injection: Group 1—PBS control; Group 2—salcut-NH2 peptide (10 μM). Appropriate Groups were treated with 25 μl injections at four corners around the tumor, three times per week for five weeks. Mice were inspected, weighed, and tumors measured (H×W×L) three times per week with calipers. Following completion of the experiment, mice were euthanized, tumors excised, and cut into four pieces. Two segments were frozen and stored at −80° C. and two segments were paraffin embedded for pathology.
as §2, with “In another experiment, six” for “Six”, “(10 pM); Group 3—salcut-NH2 peptide (10 nM); Group 4—salcut-NH2 peptide (10” for “(10”, “100” for “25”, “intraperitoneally,” for “at four corners around the tumor,”, “four” for “five”

In test [13] the test system is endothelial and tumor cell lines or primary endothelial cells. Nature of the test: Proliferation response (ATPLITE one-step assay) on a variety of endothelial and tumor cell lines. Format: cell-based. The conditions noted are these: 3E.
Excerpt: as §1

Entries after “also recorded” stand apart in the source; their conditions may differ. Where no end group is shown, it is not given here. The star is where a group is joined. Biotin = O=C1N[C@H]2[C@H](CS[C@H]2CCCCC(=O)*)N1 Where only a bound is given, the exact number is not on record here.

The source of these data is US8946382B2, “Apelin peptides and methods of use” (The United States of America, as represented by the …, priority 2009, dated 2015).

Consider (Ala13)-apelin-13 [reference compound], for which the “effect of antagonist on endothelial cell tube formation” value in test [1] (in the presence of 1 nM apelin-13, FIG. 8) is recorded as “inhibited endothelial cell tube formation”.

In the case of apelin-17, the “binding to the APJ receptor” value in test [2] was “can bind the APJ receptor”. In addition, in test [3], the “potency of peptide-induced acidification rates” value is recorded as “moderately potent”.

For “biotinylated salcut: N-terminal biotinylated salcut-NH2 ligand; a single biotin moiety attached to the amino-terminal leucine residue (Biotin-LVQPRGSRNGPGPWQG-NH2; SMILES CC(C)C[C@H](NC(=O)CCCC[C@@H]1SC[C@@H]2NC(=O)N[C@@H]21)C(=O)N[C@H](C(=O)N[C@@H](CCC(N)=O)C(=O)N1CCC[C@H]1C(=O)N[C@@H](CCCNC(=N)N)C(=O)NCC(=O)N[C@@H](CO)C(=O)N[C@@H](CCCNC(=N)N)C(=O)N[C@@H](CC(N)=O)C(=O)NCC(=O)N1CCC[C@H]1C(=O)NCC(=O)N1CCC[C@H]1C(=O)N[C@@H](Cc1c[nH]c2ccccc12)C(=O)N[C@@H](CCC(N)=O)C(=O)NCC(N)=O)C(C)C)”, the “binding to cells (fluorescent labeling)” value in test [4] is listed as “high intensity fluorescent labeling”. In [5], the “proliferative response over dose range” value is “large change in response” and the “relative potency in proliferation assays” value is reported as “equipotent in proliferation assays”.

Consider “salcut-Gly: glycine-extended form of human apelin-36 (42-57) (LVQPRGSRNGPGPWQGG; homo sapiens)”, for which the results for the “effect on HMEC-1 proliferation” value in test [6] and in [6] (listed as salcut Gly) were “non-responsive over the dose range tested; also recorded: minor effect on proliferation; also recorded: do not have a statistically significant effect on cell growth” and “no effect on HMEC-1 cell proliferation”, respectively.

In the case of “salcut-NH2: amide derivative of human apelin-36 (42-57), sixteen amino acid peptide from residues 42-57 of apelin preproprotein (LVQPRGSRNGPGPWQG-NH2)”, the “inhibition of binding of biotinylated salcut-NH2 to cells” value in [4] (unlabeled peptide in the presence of biotinylated salcut-NH2) is “can be inhibited”. Further, the “number of vessels forming from the aortic ring” value in test [7] (0.1 nM, 1.0 nM, 10 nM, 5-7 days, FIG. 9) was “number of vessels formed increase with increasing concentration; also recorded: increased number of vessels forming from the aortic ring”. Also, the “vessel formation within the aortic ring” value in test [7] (10 nM dose) was “Vessels begin to form with the ring; also recorded: vessels were beginning to form within the aortic ring”. Moreover, the “concentration at which a suppressive effect on tube formation was observed” value in test [1] is listed as “exceeding 10 nM”. Moreover, the proliferative dose response result was “biphasic response curves; also recorded: biphasic (rise and fall) response” in [8]; “biphasic response curves; also recorded: only responded to lower concentrations of salcut-NH2 by stimulating proliferation” in test [10]; “biphasic response curve; also recorded: biphasic (rise and fall) response” in test [11]. The “effect on proliferation (stimulation)” value in [9] (10 nM to 100 pM range, FIG. 3D) is reported as “neither apelin-13 (65-77) nor salcut-NH2 affect proliferation; also recorded: does not stimulate proliferation”. The “effect on proliferation at higher concentrations” value in test [9] (higher concentrations, 1 nM to 1 μM dose range (FIG. 4B)) was “lack of a statistically significant proliferative response; also recorded: cell growth suppressive effect at higher concentrations; also recorded: did not respond in a statistically significant manner”. In [6], the “effect on HMEC-1 proliferation” value was “biphasic response curve; also recorded: potent stimulators of HMEC-1 proliferation; also recorded: biphasic (rise and fall) response”. Moreover, the tumor growth entry in [12] (10 pM, 10 nM, 100 μl intraperitoneally, three times per week for four weeks, compared to PBS, FIG. 12) is on record as “reduced tumor growth”; in [12] (25 μl injections at four corners around the tumor, three times per week for five weeks, compared to PBS) it was “dramatic reduction in tumor growth”; in test [12] (100 μl intraperitoneally, three times per week for four weeks) it was “highly statistically significant (<0.005) suppression of tumor growth”. Besides, the “proliferative response over dose range” value in [5] is “large change in response”. The “relative potency in proliferation assays” value in test [5] is given as “equipotent in proliferation assays”. Further, in [13] (FIGS. 3A-3D, 3G, 3I-3O), the “concentration having a suppressive effect on cell proliferation” value is ≥ 10 nM. Moreover, the “cell proliferation (relative luminescent units [RLU])” value in test [13] (compared to cells cultured in the absence of these compounds (0 Rx), FIGS. 3A-3C, 3G-3O) was “increases”.

For the substance “salcut-OH: human apelin-36 (42-57), the free-acid derivative of salcut (LVQPRGSRNGPGPWQG-OH)”, the “effect on HMEC-1 proliferation” value is given as “minor effect on proliferation; also recorded: do not have a statistically significant effect on cell growth” in [6], “non-responsive over the dose range tested” in test [6] (listed as Salcut-OH) and “no effect on HMEC-1 cell proliferation” in test [6] (listed as salcut OH).
